Laboratory results published in PubChem BioAssay (NCI).
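Step 1: Grow cells in 96-well plates. Step 2: Expose to compound for 48 hours at 5 concentrations. Step 3: Interpolate endpoints linearly; if unreached, use highest concentration. TGI: total growth inhibition.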

Tests used:
Experiment in all cases: growth of human tumour cells (NCI), 48 h
[1] = system: OVCAR-8 ovarian
[2] = system: CCRF-CEM leukemia
[3] = system: MDA-MB-435
[4] = system: HCT-116 colon
[5] = system: SK-OV-3 ovarian
[6] = system: T-47D breast
[7] = system: SK-MEL-5 melanoma
[8] = system: HOP-92 NSCLC
[9] = system: NCI-H460 lung
[10] = system: MDA-MB-231 breast

| SMILES | TGI [1] [µM] | TGI [2] [µM] | TGI [3] [µM] | TGI [4] [µM] | TGI [5] [µM] | TGI [6] [µM] | TGI [7] [µM] | TGI [8] [µM] | TGI [9] [µM] | TGI [10] [µM] |
| --- | --- | --- | --- | --- | --- | --- | --- | --- | --- | --- |
| O=[N+]([O-])c1cc2oc(CSc3ccccc3)nc2cc1Cl | > 100 | > 100 | > 100 | > 100 | 78.7 | > 100 | 33.7 | > 100 | 81.2 | 76.9 |
| N#Cc1sc2c(c1OC(=O)c1ccc(C(F)(F)F)cc1)c(=O)n(-c1ccccc1)c(=S)n2-c1ccccc1 | > 100 | 36.7 | 94.3 | 74.6 | > 100 | > 100 | 62.2 | 68.4 | > 100 | > 100 |
| Cc1ccsc1/C=N/Nc1cnccn1 | > 100 | > 100 | > 100 | > 100 | > 100 | > 100 | > 100 | > 100 | – | > 100 |
| CC1(C)C=CC(=O)C(O)C(C)(C)C1=O (stereo not given) | > 100 | 3.63 | > 100 | > 100 | > 100 | > 100 | > 100 | > 100 | > 100 | > 100 |
| C[C@@H]1CCC2[C@@H](C)[C@@H](O[C@H]3O[C@@H]4O[C@@]5(C)CCC6[C@H](C)CCC([C@H]3C)[C@]64OO5)O[C@@H]3O[C@@]4(C)CCC1[C@@]23OO4 (stereo not given in full) | > 25 | > 25 | > 25 | > 25 | > 25 | > 25 | > 25 | > 25 | > 25 | > 25 |
| C=C(C)CNCCN | > 100 | > 100 | > 100 | > 100 | – | > 100 | > 100 | > 100 | > 100 | > 100 |
| O[C@H]1[C@H](O)[C@@H](O)CN2CC[C@H](O)[C@H]12 | > 100 | > 100 | – | > 100 | > 100 | – | > 100 | > 100 | > 100 | – |
| Cn1ncc2c(NCc3ccccc3)ncnc21 | > 100 | > 100 | > 100 | > 100 | > 100 | > 100 | > 100 | – | > 100 | > 100 |
| CN(C)Cc1cc(C(=O)/C=C/c2ccc([N+](=O)[O-])cc2)cc(CN(C)C)c1O | > 100 | 21.4 | 37.3 | 13.1 | – | 32 | 23.4 | 26.2 | – | 28.5 |
| Cc1c2c(c(C)n1-c1ccccc1)C(=O)N(CCN1CCN(c3cccc(C(F)(F)F)c3)CC1)C2=O | > 100 | – | > 100 | > 100 | > 100 | > 100 | 20.8 | > 100 | > 100 | > 100 |
| O=C(CC(=O)Nc1ccccc1)NNC(Sc1ccccc1)c1cc(N=Nc2ccc(Br)cc2)ccc1O (stereo not given) | – | > 10 | > 10 | 2.81 | > 10 | > 10 | 4.6 | > 10 | > 10 | > 10 |
| Cc1cc(OP2(=O)NCc3ncccc3O2)ccc1Cl (stereo not given) | > 100 | > 100 | > 100 | > 100 | – | > 100 | > 100 | > 100 | > 100 | > 100 |
| COc1cc(C=O)ccc1O | > 100 | > 100 | > 100 | > 100 | – | > 100 | > 100 | > 100 | > 100 | > 100 |
| O=C1NC(O)CCN1C1OC(CO)C(O)C1O (stereo not given) | > 250 | > 250 | – | > 141 | > 250 | – | > 92 | > 250 | > 250 | – |
| COc1cc(C2c3cc4c(cc3[C@@H](Nc3ccccc3)C3COC(=O)[C@H]23)OCO4)cc(OC)c1O (stereo not given in full) | > 19.7 | 0.476 | – | 6.27 | 4.87 | – | 2.66 | 11.7 | 2.86 | – |
| CCOC(=O)CNC(=O)NC12CC3CC(CC(C3)C1)C2 | > 550 | > 550 | – | > 550 | > 517 | – | 330 | 216 | > 460 | – |
| COc1ccc(N2C(=O)C3c4[nH]c5cc(C)ccc5c4C4CCC(C(C)(C)C)CC4C3C2=O)cc1 (stereo not given) | > 10 | > 10 | > 10 | > 10 | > 10 | > 10 | > 10 | – | > 10 | > 10 |
| O=C1/C(=C/c2ccc(Cl)cc2)CCCc2ccccc21 | 32.7 | 32.5 | 36.1 | 26.5 | 96.5 | – | – | 57.3 | 32.2 | 39.7 |
| COC1OC2COC(c3ccccc3)OC2C(O)C1OC(=S)c1ccccc1 (stereo not given) | > 100 | 48.5 | 4.37 | – | > 100 | 85 | 61.3 | > 100 | > 100 | > 100 |
| COc1cc(O)c2c(=O)c(OC)c(-c3ccc(OC)c(O)c3)oc2c1 | > 100 | > 100 | > 100 | > 100 | > 100 | > 100 | > 100 | – | > 100 | > 100 |
| CC1=C(C#N)c2nc3ccccc3n2C(=O)C1(C)CCO (stereo not given) | > 100 | > 100 | > 100 | > 100 | > 100 | – | > 100 | > 100 | > 100 | > 100 |
| COc1ccc2oc(=N)c(C(=O)Nc3ccccc3)cc2c1 | 46 | 37.1 | 32.3 | > 100 | 39.7 | > 100 | > 100 | – | > 100 | > 100 |
| Cc1cc(C[C@H]2O[C@@H]3OC(C)(C)O[C@@H]3[C@H]3OC(C)(C)O[C@H]32)c2ccccc2n1 | > 100 | > 100 | > 100 | > 100 | > 100 | > 100 | > 100 | – | > 100 | – |
| CCOC(=O)/C=C1/C(CCCOCc2ccccc2)C2CCCC23CC2(CCN13)OCCO2 (stereo not given) | > 100 | 64.4 | – | – | 82.9 | – | 34.8 | – | 47.1 | – |
